According to patent US20080261994A1, “CYCLOPROPANE COMPOUNDS AND PHARMACEUTICAL USE THEREOF” (Japan Tobacco Inc., priority 2003, published 2008):
Where two headings read alike, the source gives them in different places.

Key:
Type in all cases: biochemical
aggrecanase-1 = molecular target: T1, aggrecanase-1 (Homo sapiens, UniProt O75173); test: Aggrecanase-1 inhibitory action (Particle Assay, GAG release from aggrecan-containing polyacrylamide particles)
T1 sequence (O75173 213-837): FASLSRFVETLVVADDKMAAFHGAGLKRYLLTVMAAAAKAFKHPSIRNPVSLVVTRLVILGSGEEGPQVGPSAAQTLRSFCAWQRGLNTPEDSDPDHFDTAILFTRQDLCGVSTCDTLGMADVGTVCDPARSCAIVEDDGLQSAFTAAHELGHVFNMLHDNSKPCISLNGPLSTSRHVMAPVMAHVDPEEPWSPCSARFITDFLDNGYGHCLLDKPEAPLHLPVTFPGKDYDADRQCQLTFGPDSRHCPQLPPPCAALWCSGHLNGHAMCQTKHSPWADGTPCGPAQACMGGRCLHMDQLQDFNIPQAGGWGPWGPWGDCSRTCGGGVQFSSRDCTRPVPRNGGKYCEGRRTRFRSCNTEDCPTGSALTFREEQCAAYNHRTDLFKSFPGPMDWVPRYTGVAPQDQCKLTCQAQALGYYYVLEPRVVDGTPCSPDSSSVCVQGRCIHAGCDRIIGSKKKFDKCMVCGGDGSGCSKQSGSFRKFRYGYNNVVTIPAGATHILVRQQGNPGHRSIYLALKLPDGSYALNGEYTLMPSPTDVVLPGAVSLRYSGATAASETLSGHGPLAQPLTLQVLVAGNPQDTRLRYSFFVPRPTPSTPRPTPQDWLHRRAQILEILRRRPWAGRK
Experimental: Particle Assay was used for determination of aggrecanase activity.
(§1) The enzyme and substrate were diluted with Tris-HCl buffer, and test compounds were diluted with dimethyl sulfoxide (DMSO).
Test compounds and the enzyme were added into 96-well plate, and polyacrylamide particles containing aggrecan were added as a substrate and the mixture was incubated at 37° C. for 15 hr.
After incubation, the supernatant was transferred to another plate, and mixed with 1,9-dimethylmethylene blue. The absorbence at 595 nm was measured to quantify the amount of glycosaminoglycan (GAG) released in the reaction supernatant. Whale chondroitin sulfate was used as the standard of GAG. The inhibitory activity of the compound in each well (%) was calculated based on the values of enzyme-free well and inhibitor-free well. The inhibitory activity of the compound was represented as […] (μM).

Recombinant Human MMP-13 = molecular target: T2, Recombinant Human MMP-13 (Homo sapiens, UniProt P45452); test: MMP-13 inhibitory activity (MMP-13 specific fluorescent substrate with quencher)
T2 construct: purchased R&D systems 511-MM
Experimental: Inhibitory activity of tested compounds on MMP-13 was measured using MMP-13 specific fluorescent substrate with quencher.
as §1
Test compounds and the enzyme (Recombinant Human MMP-13: R&D systems, 511-MM) were added into 96-well plate. The reaction was initiated by adding synthetic substrate (7-MCA-Pro-CHA-Gly-NVal-His-Ala-DPA: enzyme systems products, Met-06) into the plate. After incubation at 25° C. for 1 h, the reaction was terminated by addition of reaction terminating solution containing acetic acid. Fluorescence intensity of each well was measured (Ex: 325 nm, […] 405 nm) and the MMP-13 inhibitory activity of the compound in each well (%) was calculated based on the values of enzyme-free well and inhibitor-free well. The inhibitory activity of the compound was represented as IC50 (μM).

MMP-1 = molecular target: T3, MMP-1 (Homo sapiens, UniProt P03956); test: MMP-1 inhibitory action (Type I collagen Activity Measurement kit, FITC-labeled collagen type I)
T3 sequence (P03956 100-469): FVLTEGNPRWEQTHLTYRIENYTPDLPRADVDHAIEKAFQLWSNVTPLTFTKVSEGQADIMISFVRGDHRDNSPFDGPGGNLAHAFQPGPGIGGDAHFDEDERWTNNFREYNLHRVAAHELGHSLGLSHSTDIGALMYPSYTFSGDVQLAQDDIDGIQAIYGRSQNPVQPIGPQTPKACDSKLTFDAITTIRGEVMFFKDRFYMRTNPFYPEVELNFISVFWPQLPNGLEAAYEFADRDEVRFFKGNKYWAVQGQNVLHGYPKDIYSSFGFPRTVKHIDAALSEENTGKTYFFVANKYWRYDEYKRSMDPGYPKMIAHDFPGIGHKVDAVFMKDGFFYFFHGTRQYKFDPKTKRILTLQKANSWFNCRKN
Experimental: For MMP-1 Assay, Type I collagen Activity Measurement kit (YAGAI YU-72013) modified to a 96-well plate format was used.
The principle of the kit is based on the property of collagen that becomes soluble in ethanol after being cleaved by MMP-1.
as §1
The enzyme and test compounds were added into 96-well plate, and fluorescein isothiocianate (FITC)-labeled collagen type I was added as a substrate and the mixture was incubated at 37° C. for 3 hr.
The reaction was terminated by addition of Tris-HCl buffer containing ethanol. After centrifugation, the supernatant containing denatured substrate was transferred to another 96-well plate. The collagenase activity of MMP-1 was determined by measuring FITC fluorescence intensity (excitation wavelength 485 nm, emission wavelength 530 nm) of each well. The inhibitory activity of the compound in each well (%) was calculated based on the values of enzyme-free well and inhibitor-free well. The inhibitory activity of the compound was represented as IC50 (μM).

[1] = aggrecanase-1 inhibitory action, read-out: IC50 AG1 (Experimental Example 1)
[2] = Recombinant Human MMP-13, fluorescent substrate, 25° C. for 1 h, read-out: IC50 MMP13 (Experimental Example 3)
[3] = MMP-1 inhibitory action, FITC-labeled collagen type I, 37° C. for 3 hr, read-out: IC50 MMP1 (Experimental Example 2)
[4] = Experimental Example 1, read-out: IC50 AG1
[5] = Experimental Example 3, read-out: IC50 MMP13
[6] = Experimental Example 2, read-out: IC50 MMP1

SMILES | IC50 (aggrecanase-1; [1]) | IC50 (Recombinant Human MMP-13; [2]) | IC50 (MMP-1; [3]) | IC50 (aggrecanase-1; [4]) | IC50 (Recombinant Human MMP-13; [5]) | IC50 (MMP-1; [6])
CC(F)(F)c1cc(-c2ccc(S(=O)(=O)N[C@@]3(C(=O)O)C[C@@H]3c3ccccc3)s2)no1 [Example 2-84] | < 0.1 µM | < 0.1 µM | < 1 µM | – | – | –
CC1[C@H](c2ccccc2)[C@]1(NS(=O)(=O)c1ccc(-c2cc(C3CC3)on2)s1)C(=O)O (stereo partly drawn) [Example 2-433] | – | – | – | < 0.1 µM | < 0.1 µM | < 1 µM
O=C(NCCC(F)(F)F)c1ccc(S(=O)(=O)NC2(C(=O)O)CC2c2ccccc2)s1 (stereo not drawn) [Example 2-97] | ≥ 10 µM | ≥ 10 µM | ≥ 10 µM | – | – | –
Cn1cc(-c2ccc(S(=O)(=O)N[C@@]3(C(=O)O)C[C@@H]3c3ccccc3)s2)cn1 [Example 2-387] | – | – | – | ≥ 1 µM | < 1 µM | ≥ 10 µM
COCCCC1(c2ccccc2)CC1(NS(=O)(=O)c1ccc(-c2ccc(Cl)cc2)s1)C(=O)O (stereo not drawn) [Example 2-559] | – | – | – | < 0.1 µM | < 1 µM | ≥ 1 µM
CCC1C(c2ccccc2)C1(NS(=O)(=O)c1ccc(-c2cc(C(F)(F)F)on2)s1)C(=O)O (stereo not drawn) [Example 2-299] | – | – | – | < 0.1 µM | < 0.1 µM | < 0.1 µM
COc1ccc(CN2CCN(S(=O)(=O)N[C@@]3(C(=O)O)C(C)[C@@H]3c3ccccc3)CC2)cc1 (stereo partly drawn) [Example 2-536] | – | – | – | ≥ 1 µM | ≥ 1 µM | ≥ 1 µM
O=C(Cc1cccc(C2CC2(NS(=O)(=O)c2ccc(-c3ccc(Cl)cc3)s2)C(=O)O)c1)N1CCOCC1 (stereo not drawn) [Example 2-190] | < 0.1 µM | < 0.1 µM | ≥ 1 µM | – | – | –
CC(=O)c1ccc(S(=O)(=O)NC2(C(=O)O)CC2c2ccccc2)s1 (stereo not drawn) [Example 2-66] | ≥ 1 µM | ≥ 1 µM | ≥ 10 µM | – | – | –
O=C(O)C1(NS(=O)(=O)c2ccc(-c3cc(C(F)(F)F)on3)s2)C2CCc3ccccc3C21 (stereo not drawn) [Example 2-351] | – | – | – | < 0.1 µM | < 0.1 µM | < 1 µM
CC(C)CCN1CCN(S(=O)(=O)N[C@@]2(C(=O)O)C[C@@H]2c2ccccc2)CC1 [Example 2-511] | – | – | – | ≥ 1 µM | ≥ 1 µM | ≥ 1 µM
O=C(O)[C@]1(NS(=O)(=O)c2ccc(-c3ccc(Cl)nc3)s2)C[C@@H]1c1ccccc1 [Example 2-27] | < 1 µM | < 1 µM | ≥ 10 µM | – | – | –
CC1[C@H](c2ccccc2)[C@]1(NS(=O)(=O)c1ccc(-c2ccc3c(c2)OCO3)s1)C(=O)O (stereo partly drawn) [Example 2-470] | – | – | – | < 0.1 µM | < 0.1 µM | < 1 µM
O=C(O)[C@]1(NS(=O)(=O)c2ccc(-c3cc(C(F)(F)F)on3)s2)C[C@@H]1c1ccc(CCCO)cc1 [Example 2-302] | – | – | – | < 0.1 µM | < 0.1 µM | < 1 µM
CCCc1cc(-c2ccc(S(=O)(=O)N[C@@]3(C(=O)O)C[C@@H]3c3ccccc3)s2)no1 [Example 2-90] | ≥ 1 µM | < 0.1 µM | ≥ 1 µM | – | – | –
CN(C)C(=O)Cc1cccc(C2CC2(NS(=O)(=O)c2ccc(-c3ccc(Cl)cc3)s2)C(=O)O)c1 (stereo not drawn) [Example 2-189] | < 0.1 µM | < 0.1 µM | ≥ 10 µM | – | – | –
